Results taken from patent US20090170906A1, “HCV INHIBITORS” (priority 2004, published 2009).

System: HCV genotype 1b strain Con1 replicon (ET replicon line, Huh7 cells)
Test: ET replicon luciferase assay (HCV activity)
Assay type: cell-based
Details: Hepatitis C virus, Huh-7, Huh7 cells with HCV genotype 1b Con1 luciferase replicon, 72 hours incubation
Description: Compounds of the current invention are believed useful in the treatment and/or prophylaxis of conditions and diseases associated with HcV infection. Activity mediated through HCV was determined using an ET replicon line.
The Materials used include a Medium comprised of DMEM (1× liquid, high glucose); Invitrogen cat# 11965-092; 100× Penicillin/Streptomycin solution (10,000 Units/mL); Invitrogen cat# 15140-122; 100× Non-essential amino acid solution (10 mM); Invitrogen cat# 11140-050; Fetal bovine serum; JRH Biosciences cat# 12107-500M; Geneticin (50 mg/mL); Invitrogen cat# 10131-035
The Luciferase assay reagents include Steady-Glo Luciferase assay system, cat# E2550 (Promega)
The ET replicon line (see Lohmann et al. (1999), Replication of subgenomic hepatitis C virus RNAs in a hepatoma cell line. Science 285: 110-113; Krieger et al. (2001), Enhancement of hepatitis C virus RNA replication by cell culture-adaptive mutations. J. Virol. 75: 46144624; and Vrolijk et al. (2003), A replicon-based bioassay for the measurement of interferons in patients with chronic hepatitis C. J. Virol. Meth. 110: 201-209, each herein incorporated by reference with regard to the ET replicon line), includes Huh7 cells stably transfected with HCV genotype 1b strain Con1 replicon. This replicon expresses the firefly luciferase, has the coding region for ubiquitin inserted upstream of the neomycin gene, and carries three cell culture-adaptive mutations that enhance RNA replication cooperatively (E1202G, T1280I, and S2197P). The ET cell line was obtained under licence from: R^eBLikon GmbH, Nach dem alten Schloss 22, 55239 Gau-Odemheim, Germany.
Cells are maintained at 37° C., 5% CO2, in DMEM with 10% FCS, 1× penicillin/streptomycin, 1× non-essential amino acids, 0.5 mg/mL Geneticin. For passage, cells are washed once with PBS, and incubated at 37° C. with sufficient trypsin (0.05%)/versene to cover the monolayer. Once detached from the flask, cells are mixed with several mLs of DMEM+10% FBS to inactivate the trypsin, then diluted appropriately (usually 1 in 5 or 1 in 10) with sufficient medium to pass to a new flask. For a T225 flask, 40-50 mLs total volume of cells+medium is typically used. To prevent the density dependent drop in replicon RNA, the ET cell line is maintained at sub-confluent (60-80%) levels.
Compounds are diluted in DMSO across the first 10 wells of a Costar V-bottom 96-well plate using a Biomek 2000 Workstation (Beckman-Coulter), with 0.5 log10 dilution intervals. DMSO only is added to the last two columns of the plate. The top concentration of drug in this master plate is typically 2.5 mM. A 1/5 dilution of the compounds is made by adding DMEM+10% FBS with a multichannel pipettor, giving a top concentration of 500 μM. 5 μL of diluted compounds is transferred into black Costar flat bottom 96-well daughter plates using a RapidPlate workstation (Zymark).
Cells are grown to approximately 80% confluency and trypsinised as described above. Cells are counted in a Levy Hemocytometer and diluted to 20,000 cells/ml in DMEM containing 10% FBS, 1× penicillin/streptomycin, 1×NEAAs. (Note: Geneticin is omitted for the assay).
245 μL cell suspension is added to the first 11 columns of the daughter plates prepared as above using a Multidrop dispenser (Titertek). Thus, 5,000 cells are added per well, and the final top concentration of each compound is 10 μM. The twelfth column of each plate is used to generate background readings for the assay. Plates are incubated at 37° C., 5% CO2 for 72 hours.
Steady-Glo reagent is prepared according to the manufacturer's instructions, by mixing the Steady-Glo Buffer and Steady-Glo substrate Buffer at room temperature. Medium is removed from the 96-well plates containing ET cells treated with compound using a multi-channel aspirator. 100 μl of Steady-Glo reagent is added to each well using a multichannel pipettor or Multidrop dispensor. […]

**Q.** Which IC50 does the source give for O=C(N[C@@H]1CCCc2c1[nH]c1ccc(Cl)cc21)c1ccccc1 [Example 36B, N-[(1R)-6-chloro-2,3,4,9-tetrahydro-1H-carbazol-1-yl]benzamide] here?
**A.** Its IC50 is less than 30 nM.

**Q.** For O=C(NC1CCCc2c1[nH]c1ccc(Br)cc21)c1ccccc1F (stereo not drawn) [Example 29, N-(6-Bromo-2,3,4,9-tetrahydro-1H-carbazol-1-yl)-2-fluorobenzamide], which IC50 is on record?
**A.** Its IC50 is 6 nM.

**Q.** For O=C(NC1CCCc2c1[nH]c1ccc(Br)cc21)c1ccccc1 (stereo not drawn) [Example 14A, N-(6-Bromo-2,3,4,9-tetrahydro-1H-carbazol-1-yl)benzamide], which IC50 is on record?
**A.** The IC50 was 17 nM.

**Q.** For O=C(N[C@@H]1CCCc2c1[nH]c1ccc(Cl)cc21)c1ccccn1 [Example 45B, N-[(1R)-6-chloro-2,3,4,9-tetrahydro-1H-carbazol-1-yl]pyridine-2-carboxamide], which IC50 is on record?
**A.** Its IC50 is 6 nM.

**Q.** With O=C(NC1CCCc2c1[nH]c1ccc(Br)cc21)c1ccccn1 (stereo not drawn) [Example 38, N-(6-Bromo-2,3,4,9-tetrahydro-1H-carbazol-1-yl)pyridine-2-carboxamide] as the compound, how does the IC50 read?
**A.** The IC50 was 7 nM.

**Q.** Which IC50 does the source give for O=C(N[C@@H]1CCCc2c1[nH]c1ccc(Cl)cc21)c1ccccc1F [Example 46B, N-[(1R)-6-chloro-2,3,4,9-tetrahydro-1H-carbazol-1-yl]-2-fluorobenzamide] here?
**A.** Its IC50 is 16 nM.
